Measured values from US9446130B2, “BTK inhibitors” (MERCK SHARP & DOHME CORP., priority 2013, dated 2016).

Molecular target: BTK enzyme (hBTK, full-length recombinant) (Homo sapiens (Human), UniProt Q06187)
Assay: Btk enzyme activity assay, Method B: LANCE TR-FRET
Type: biochemical
Conditions: 25 μM ATP, 60 minute compound & enzyme incubation
Protocol: Also BTK enzymatic activity was determined with the LANCE (Lanthanide Chelate Excite) TR-FRET (Time-resolved fluorescence resonance energy transfer) assay. […] The final reaction in each well of 10 μL consists of 100 pM hBTK, 2 μM biotin-A5-peptide, and 25 μM ATP. Phosphorylation reactions were allowed to proceed for 120 minutes. […] After 60 minutes incubation with detection reagents, reaction plates were read on a PerkinElmer EnVision plate reader using standard TR-FRET protocol. Briefly, excitation of donor molecules (Eu-chelate:anti-phospho-antibody) with a laser light source at 337 nm produces energy that can be transferred to Dylight-650 acceptor molecules if this donor:acceptor pair is within close proximity. Fluorescence intensity at both 665 nm (acceptor) and 615 nm (donor) are measured and a TR-FRET ratio calculated for each well (acceptor intensity/donor intensity). IC50 values were determined by 4 parameter robust fit of TR-FRET ratio values vs. (Log10) compound concentrations. BTK enzymatic activity was determined with the LANCE (Lanthanide Chelate Excite) TR-FRET (Time-resolved fluorescence resonance energy transfer) assay. […] The final reaction in each well of 10 μL consists of 50 pM hBTK, 2 μM biotin-A5-peptide, and 25 μM ATP. Phosphorylation reactions were allowed to proceed for 120 minutes. […] After 60 minutes incubation with detection reagents, reaction plates were read on a PerkinElmer EnVision plate reader using standard TR-FRET protocol. Briefly, excitation of donor molecules (Eu-chelate:anti-phospho-antibody) with a laser light source at 337 nm produces energy that can be transferred to Dylight-650 acceptor molecules if this donor:acceptor pair is within close proximity. Fluorescence intensity at both 665 nm (acceptor) and 615 nm (donor) are measured and a TR-FRET ratio calculated for each well (acceptor intensity/donor intensity). IC50 values were determined by 4 parameter robust fit of TR-FRET ratio values vs. (Log10) compound concentrations.

BTK enzyme (hBTK, full-length recombinant), sequence (Q06187 whole entry): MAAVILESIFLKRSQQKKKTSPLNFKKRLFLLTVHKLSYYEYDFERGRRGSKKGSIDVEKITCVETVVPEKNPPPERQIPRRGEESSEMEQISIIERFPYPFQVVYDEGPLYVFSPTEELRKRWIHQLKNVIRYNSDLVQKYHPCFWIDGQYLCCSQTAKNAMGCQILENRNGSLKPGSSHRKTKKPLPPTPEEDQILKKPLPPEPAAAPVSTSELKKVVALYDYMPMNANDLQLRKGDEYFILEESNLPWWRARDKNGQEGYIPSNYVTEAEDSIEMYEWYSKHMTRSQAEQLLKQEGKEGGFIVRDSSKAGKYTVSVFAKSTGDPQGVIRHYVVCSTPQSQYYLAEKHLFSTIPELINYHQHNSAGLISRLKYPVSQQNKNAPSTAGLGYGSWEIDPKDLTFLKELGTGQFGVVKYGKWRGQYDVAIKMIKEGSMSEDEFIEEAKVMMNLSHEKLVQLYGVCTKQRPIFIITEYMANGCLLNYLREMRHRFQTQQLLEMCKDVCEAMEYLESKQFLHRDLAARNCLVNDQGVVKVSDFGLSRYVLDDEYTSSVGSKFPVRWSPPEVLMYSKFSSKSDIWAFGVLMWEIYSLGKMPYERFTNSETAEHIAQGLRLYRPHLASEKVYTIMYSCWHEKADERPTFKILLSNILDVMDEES

Row | SMILES | IC50 [nM]
1 | Cn1ncc2c1CCC[C@@H]2c1nc(-c2ccc(C(=O)Nc3cc(C(F)(F)F)ccn3)cc2)c2c(N)nccn12 [Example 24, (S)-4-(8-amino-3-(1-methyl-4,5,6,7-tetrahydro-1H-indazol-4-yl)imidazo[1,5-a]pyrazin-1-yl)-N-(4-(trifluoromethyl)pyridin-2-yl)benzamide] | 740
2 | Cn1ncc2c1CCC[C@@]2(O)c1nc(-c2ccc(C(=O)Nc3cc(C(F)(F)F)ccn3)cc2)c2c(N)nccn12 [Example 2, (S)-4-(8-amino-3-(4-hydroxy-1-methyl-4,5,6,7-tetrahydro-1H-indazol-4-yl)imidazo[1,5-a]pyrazin-1-yl)-N-(4-(trifluoromethyl)pyridin-2-yl)benzamide] | 0.33
3 | Cn1cc2c(n1)CCC[C@H]2n1nc(-c2ccc(C(=O)Nc3cc(C(F)(F)F)ccn3)cc2)c2c(N)ncnc21 [Example 8, (R)-4-(4-amino-1-(2-methyl-4,5,6,7-tetrahydro-2H-indazol-4-yl)-1H-pyrazolo[3,4-d]pyrimidin-3-yl)-N-(4-(trifluoromethyl)pyridin-2-yl)benzamide] | 3.2
4 | Cn1cc2c(n1)CCC[C@@H]2n1nc(-c2ccc(C(=O)Nc3cc(C(F)(F)F)ccn3)cc2)c2c(N)ncnc21 [Example 10, (S)-4-(4-amino-1-(2-methyl-4,5,6,7-tetrahydro-2H-indazol-4-yl)-1H-pyrazolo[3,4-d]pyrimidin-3-yl)-N-(4-(trifluoromethyl)pyridin-2-yl)benzamide] | 83
5 | Nc1ncnc2c1c(-c1ccc(C(=O)Nc3cc(C(F)(F)F)ccn3)cc1)nn2[C@H]1CCCc2nn(CCO)cc21 [Example 18, (S)-4-(4-amino-1-(2-(2-hydroxyethyl)-4,5,6,7-tetrahydro-2H-indazol-4-yl)-1H-pyrazolo[3,4-d]pyrimidin-3-yl)-N-(4-(trifluoromethyl)pyridin-2-yl)benzamide] | 1.3
6 | CCn1ncc2c1CCC[C@H]2n1nc(-c2ccc(C(=O)Nc3cc(C(F)(F)F)ccn3)cc2)c2c(N)ncnc21 [Example 11, (R)-4-(4-amino-1-(1-ethyl-4,5,6,7-tetrahydro-1H-indazol-4-yl)-1H-pyrazolo[3,4-d]pyrimidin-3-yl)-N-(4-(trifluoromethyl)pyridin-2-yl)benzamide] | 3.2
7 | Cn1ncc2c1CCC[C@H]2c1nc(-c2ccc(C(=O)Nc3cc(C(F)(F)F)ccn3)cc2)c2c(N)nccn12 [Example 23, (R)-4-(8-amino-3-(1-methyl-4,5,6,7-tetrahydro-1H-indazol-4-yl)imidazo[1,5-a]pyrazin-1-yl)-N-(4-(trifluoromethyl)pyridin-2-yl)benzamide] | 1000
8 | Nc1ncnc2c1c(-c1ccc(C(=O)Nc3cc(C(F)(F)F)ccn3)cc1)nn2[C@@H]1CCCc2[nH]ncc21 [Example 5, (R)-4-(4-amino-1-(4,5,6,7-tetrahydro-1H-indazol-4-yl)-1H-pyrazolo[3,4-d]pyrimidin-3-yl)-N-(4-(trifluoromethyl)pyridin-2-yl)benzamide] | 0.52
9 | Nc1ncnc2c1c(-c1ccc(C(=O)Nc3cc(C(F)(F)F)ccn3)cc1)nn2[C@H]1CCCc2c1cnn2CCO [Example 17, (S)-4-(4-amino-1-(1-(2-hydroxyethyl)-4,5,6,7-tetrahydro-1H-indazol-4-yl)-1H-pyrazolo[3,4-d]pyrimidin-3-yl)-N-(4-(trifluoromethyl)pyridin-2-yl)benzamide] | 2.1
10 | Cn1ncc2c1CCC[C@H]2n1nc(-c2ccc(C(=O)Nc3cc(C(F)(F)F)ccn3)cc2)c2c(N)ncnc21 [Example 7, (R)-4-(4-amino-1-(1-methyl-4,5,6,7-tetrahydro-1H-indazol-4-yl)-1H-pyrazolo[3,4-d]pyrimidin-3-yl)-N-(4-(trifluoromethyl)pyridin-2-yl)benzamide] | 5.9
11 | Cn1ncc2c1CCC[C@]2(O)c1nc(-c2ccc(C(=O)Nc3cc(C(F)(F)F)ccn3)cc2)c2c(N)nccn12 [Example 3, (R)-4-(8-amino-3-(4-hydroxy-1-methyl-4,5,6,7-tetrahydro-1H-indazol-4-yl)imidazo[1,5-a]pyrazin-1-yl)-N-(4-(trifluoromethyl)pyridin-2-yl)benzamide] | 2
12 | Nc1nccn2c([C@H]3CCn4c(nnc4C(F)(F)F)C3)nc(-c3ccc(C(=O)Nc4cc(C(F)(F)F)ccn4)cc3)c12 [Example 21, (S)-4-(8-amino-3-(3-(trifluoromethyl)-5,6,7,8-tetrahydro-[1,2,4]triazolo[4,3-a]pyridin-7-yl)imidazo[1,5-a]pyrazin-1-yl)-N-(4-(trifluoromethyl)pyridin-2-yl)benzamide] | 0.81
13 | Nc1ncnc2c1c(-c1ccc(C(=O)Nc3cc(C(F)(F)F)ccn3)cc1)nn2[C@@H]1CCCc2c1cnn2CCO [Example 15, (R)-4-(4-amino-1-(1-(2-hydroxyethyl)-4,5,6,7-tetrahydro-1H-indazol-4-yl)-1H-pyrazolo[3,4-d]pyrimidin-3-yl)-N-(4-(trifluoromethyl)pyridin-2-yl)benzamide] | 1.1
14 | Nc1nccn2c([C@H]3CCCn4c(C5CC5)nnc43)nc(-c3ccc(C(=O)Nc4cc(C(F)(F)F)ccn4)cc3)c12 [Example 20, (R)-4-(8-amino-3-(3-cyclopropyl-5,6,7,8-tetrahydro-[1,2,4]triazolo[4,3-a]pyridin-8-yl)imidazo[1,5-a]pyrazin-1-yl)-N-(4-(trifluoromethyl)pyridin-2-yl)benzamide] | 56
15 | CCn1cc2c(n1)CCC[C@H]2n1nc(-c2ccc(C(=O)Nc3cc(C(F)(F)F)ccn3)cc2)c2c(N)ncnc21 [Example 12, (R)-4-(4-amino-1-(2-ethyl-4,5,6,7-tetrahydro-2H-indazol-4-yl)-1H-pyrazolo[3,4-d]pyrimidin-3-yl)-N-(4-(trifluoromethyl)pyridin-2-yl)benzamide] | 13
16 | CCn1cc2c(n1)CCC[C@@H]2n1nc(-c2ccc(C(=O)Nc3cc(C(F)(F)F)ccn3)cc2)c2c(N)ncnc21 [Example 14, (S)-4-(4-amino-1-(2-ethyl-4,5,6,7-tetrahydro-2H-indazol-4-yl)-1H-pyrazolo[3,4-d]pyrimidin-3-yl)-N-(4-(trifluoromethyl)pyridin-2-yl)benzamide] | 54
17 | Nc1ncnc2c1c(-c1ccc(C(=O)Nc3cc(C(F)(F)F)ccn3)cc1)nn2[C@@H]1CCCc2nn(CCO)cc21 [Example 16, (R)-4-(4-amino-1-(2-(2-hydroxyethyl)-4,5,6,7-tetrahydro-2H-indazol-4-yl)-1H-pyrazolo[3,4-d]pyrimidin-3-yl)-N-(4-(trifluoromethyl)pyridin-2-yl)benzamide] | 0.45
18 | Nc1nccn2c([C@@H]3CCCn4c(C5CC5)nnc43)nc(-c3ccc(C(=O)Nc4cc(C(F)(F)F)ccn4)cc3)c12 [Example 19, (S)-4-(8-amino-3-(3-cyclopropyl-5,6,7,8-tetrahydro-[1,2,4]triazolo[4,3-a]pyridin-8-yl)imidazo[1,5-a]pyrazin-1-yl)-N-(4-(trifluoromethyl)pyridin-2-yl)benzamide] | 67
19 | CC(C)Oc1ccnc(NC(=O)c2ccc(-c3nc(N4CCn5c(nnc5C(F)(F)F)C4)n4ccnc(N)c34)cc2)c1 [Example 25, 4-(8-amino-3-(3-(trifluoromethyl)-5,6-dihydro-[1,2,4]triazolo[4,3-a]pyrazin-7(8H)-yl)imidazo[1,5-a]pyrazin-1-yl)-N-(4-isopropoxypyridin-2-yl)benzamide] | 43
20 | Nc1nccn2c([C@@H]3CCn4c(nnc4C(F)(F)F)C3)nc(-c3ccc(C(=O)Nc4cc(C(F)(F)F)ccn4)cc3)c12 [Example 22, (R)-4-(8-amino-3-(3-(trifluoromethyl)-5,6,7,8-tetrahydro-[1,2,4]triazolo[4,3-a]pyridin-7-yl)imidazo[1,5-a]pyrazin-1-yl)-N-(4-(trifluoromethyl)pyridin-2-yl)benzamide] | 11
21 | Nc1ncnc2c1c(-c1ccc(C(=O)Nc3cc(C(F)(F)F)ccn3)cc1)nn2[C@H]1CCCc2[nH]ncc21 [Example 6, (S)-4-(4-amino-1-(4,5,6,7-tetrahydro-1H-indazol-4-yl)-1H-pyrazolo[3,4-d]pyrimidin-3-yl)-N-(4-(trifluoromethyl)pyridin-2-yl)benzamide] | 60
22 | CCn1ncc2c1CCC[C@@H]2n1nc(-c2ccc(C(=O)Nc3cc(C(F)(F)F)ccn3)cc2)c2c(N)ncnc21 [Example 13, (S)-4-(4-amino-1-(1-ethyl-4,5,6,7-tetrahydro-1H-indazol-4-yl)-1H-pyrazolo[3,4-d]pyrimidin-3-yl)-N-(4-(trifluoromethyl)pyridin-2-yl)benzamide] | 5.9
